Test results published in patent US5690906A (The Trustees of the University of Pennsylvania, priority 1995, dated 1997).
Where two headings read alike, the source gives them in different places. Values belong to the compound of their own block, whether it stands above or below them.

Key:
[1] = biological target: T1, 5-HT1A receptor (Rattus norvegicus, UniProt P19327); assay: Inhibition of [^3 H]-8-OH-DPAT binding to rat hippocampal membrane homogenates; settings: against [^3 H]-8-OH-DPAT, rat hippocampus membranes; read-out: K1 (inhibition constant)
T1 construct: from tissue; host or cells: rat hippocampus membrane homogenates
T1 sequence (P19327 1-422): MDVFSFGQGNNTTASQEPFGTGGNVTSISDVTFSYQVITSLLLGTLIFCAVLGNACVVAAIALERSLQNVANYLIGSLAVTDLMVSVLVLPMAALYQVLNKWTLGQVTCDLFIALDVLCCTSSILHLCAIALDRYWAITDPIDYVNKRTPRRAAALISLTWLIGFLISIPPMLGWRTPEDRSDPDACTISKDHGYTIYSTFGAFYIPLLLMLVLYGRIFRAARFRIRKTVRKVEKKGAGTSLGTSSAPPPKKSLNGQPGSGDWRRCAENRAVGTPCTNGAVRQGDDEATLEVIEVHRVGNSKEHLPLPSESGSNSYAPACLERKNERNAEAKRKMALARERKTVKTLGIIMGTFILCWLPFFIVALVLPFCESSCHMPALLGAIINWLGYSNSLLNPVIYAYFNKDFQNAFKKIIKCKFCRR
Procedure: The hippocampal homogenates were prepared in 100 volumes of ice-cold Tris-HCl buffer (50mM, pH 7.4) and centrifuged at 20,000 g for 20 minutes. […] The final pellets were resuspended in the Tris-buffer containing 2mM of MgCl2. […] The tubes were incubated at 37° C. for fifteen minutes and then terminated by vacuum filtration through glass filters (Schleicher & Schuell, No. 25, Keene, N.H.) soaked with 1% polyethylimine. […] Both Scatchard and competition experiments were analyzed using the iterative least-squarecurve fitting program LIGAND.

[2] = biological target: T2, D2 dopamine receptor (Rattus norvegicus, UniProt P61169); assay: Inhibition of [^125 I]NCQ298 binding to D2 dopamine receptors expressed in Sf9 cells; settings: for HC D2: Table 4, Hill coefficient; for Ki: Table 4 and its discussion, [^125 I]-NCQ298 0.05 nM, 37° C., 20 min, read-out: Ki D2
T2 construct: made in house; host or cells: Sf9 insect cells infected with recombinant baculovirus (AcMNPVrD2L or AcMNPVrD2S), membrane homogenates
T2 sequence (P61169 whole entry): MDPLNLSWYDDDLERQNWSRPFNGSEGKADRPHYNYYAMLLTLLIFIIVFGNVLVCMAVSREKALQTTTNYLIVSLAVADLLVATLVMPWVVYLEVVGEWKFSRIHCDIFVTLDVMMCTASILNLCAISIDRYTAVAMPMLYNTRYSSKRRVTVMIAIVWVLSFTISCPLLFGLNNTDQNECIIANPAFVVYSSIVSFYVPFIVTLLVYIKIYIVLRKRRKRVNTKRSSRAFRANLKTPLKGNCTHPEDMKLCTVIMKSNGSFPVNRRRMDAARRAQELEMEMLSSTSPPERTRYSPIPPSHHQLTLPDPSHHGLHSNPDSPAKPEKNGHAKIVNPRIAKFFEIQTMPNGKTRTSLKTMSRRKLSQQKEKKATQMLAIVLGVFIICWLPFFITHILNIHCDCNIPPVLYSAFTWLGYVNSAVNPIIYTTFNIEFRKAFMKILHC

[3] = biological target: T3, D3 dopamine receptor (Rattus norvegicus, UniProt P19020); assay: Inhibition of [^125 I]NCQ298 binding to D3 dopamine receptors expressed in Sf9 cells; settings: for HC D3: Table 4, Hill coefficient; for Ratio D2/D3: Ki(D2)/Ki(D3)
T3 construct: made in house; host or cells: Sf9 insect cells infected with recombinant baculovirus AcMNPVrD3, membrane homogenates
T3 sequence (P19020 whole entry): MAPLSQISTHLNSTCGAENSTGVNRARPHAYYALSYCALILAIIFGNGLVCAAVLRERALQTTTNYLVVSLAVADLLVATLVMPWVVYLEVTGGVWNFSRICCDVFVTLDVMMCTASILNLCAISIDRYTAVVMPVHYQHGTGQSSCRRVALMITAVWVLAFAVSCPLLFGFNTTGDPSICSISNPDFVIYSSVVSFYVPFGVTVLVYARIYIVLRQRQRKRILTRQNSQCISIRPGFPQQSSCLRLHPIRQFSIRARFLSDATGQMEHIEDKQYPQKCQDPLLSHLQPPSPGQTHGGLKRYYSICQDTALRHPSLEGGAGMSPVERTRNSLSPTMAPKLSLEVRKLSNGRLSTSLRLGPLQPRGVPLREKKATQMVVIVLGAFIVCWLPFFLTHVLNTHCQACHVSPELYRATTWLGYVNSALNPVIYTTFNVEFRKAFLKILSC
Procedure: The construction of pVL1393-rD3 was previously described. […] An aliquot of membranes was used for radioligand binding.
Membranes from AcMNPV-rD3 infected Sf9 cells were prepared. […] Assays were incubated at 37° C. for 20 min. then filtered and washed as described above.

[4] = biological target: D3 receptors (expressed in Sf9 cells) (Rattus norvegicus, UniProt P19020); settings: for Hill Co.: Table 3, [^125 I]trans-7-OH-PIPAT competition; for Hill Co. / Ki: 37° C., 120 mM NaCl; for affinity for the D3 receptor: competition with [^125 I]trans-7-OH-PIPAT; for Ki: ± SE, [^125 I]trans-7-OH-PIPAT 0.1-0.2 nM
Sequence of D3 receptors (expressed in Sf9 cells) (P19020 whole entry): as above
Procedure: Plasmid DNA was isolated by alkaline dialysis and purified by CsCl density gradient centrifugation and overnight dialysis for transfection of Sf9 cells. […] A monolayer of Sf9 cells (approximately 2×10^6 cells/T25 plate) was cotransfected by calcium phosphate precipitation, with 1 mg of AcMNPV DNA (provided by Dr. Max Summers, Texas A&M University, College Station, Tex.) and 2 mg of recombinant transfer vector DNA. […] Putative recombinant viral plaques were chosen by visual screening for occlusion-negative plaques and used to infect 1×10^6 Sf9 cells in a 6-well plate (CoStar, Cambridge, Mass.). Four days after infection, cells were harvested and membranes were prepared. An aliquot of membranes was used for radioligand binding. […] The membrane homogenates of AcMNPVrD3 infected Sf9 cells were prepared as described. Briefly, the harvested cells were centrifuged, resuspended and homogenized in buffer containing 50 mM Tris, pH7.4, 150mM NaCl, 10 mM EDTA and a mixture of protease inhibitors (1 mg/ml aprotinin, 1 mg/ml leupeptin, 1 mg/ml soybean trypsin inhibitor, 10 mg/ml PMSF). The final pellets obtained were resuspended in the same buffer and kept at -20° C. for radioligand binding assays.
Binding assays were performed in glass tubes (12×75 mm) in a final volume of 0.2 ml. The buffer used for the dilution contained 50 mM Tris, pH 7.4, and the protease inhibitors mixture. […] The competition experiments were performed in the presence of 120 mM NaCl. […] After incubation for 30 min at 37° C. or 90 min at 25° C., the bound ligand was separated from the free ligand by filtration through glass fiber filters No. 25 (Schleicher & Schuell, Keene, N.H.) soaked with 0.2% protamine free base. The filters were then washed twice with 4 ml of ice-cold buffer (containing 50 mM Tris-HCl, pH 7.4) and the radioactivity on the filters was counted in a gamma counter (Packard 5000) with 70% efficiency.

[5] = In-vivo biodistribution in rats; set-up: species or system rat; Brain uptake: unit not given here; settings: for Brain uptake: table; for tissue uptake at 2 min / tissue uptake at 0.5 h: rat, in vivo
Procedure: In-vivo biodistribution studies were performed in rats^27 with the two hydroxylated radioligands: [^123 I]-7-OH-DPAT and [^123 I]-7-OH-PIPAT in rats. Concerning [^123 I]-7-OH-DPAT rats were killed either two minutes or thirty minutes post injection and the data are reported in Table 5. […] On the contrary, [^123 I]-7-OH-PIPAT presented a very high brain uptake: 11.812, 9,458 and 5.433% dose/gram of tissue at 2, 30 and 60 min. respectively (See Table 6). […] However, the brain regions, rich in D3 receptors such as Calleja island and olfactory tubercle need to be more deeply investigated.

- Ki [1]: 17 ± 2.2 nM
SMILES: COc1cccc2c1CC(NC/C=C/I)CC2 (racemic) [(±)trans-8-OMe-IPAT, 8-Methoxy-2-(N-3'-iodo-2'-propenyl) aminotetralin]

SMILES: CCCN(CCC)C1CCc2ccc(O)cc2C1 (stereo not shown) [7-OH-DPAT, 7Hydroxy-2-N,N-n-Dipropylaminotetralin, reference compound]
- HC D2 [2]: 1.02
- HC D3 [3]: 0.85
- Hill Co. [4]: 0.87
- affinity for the D3 receptor [4]: high affinity

- Hill Co. [4]: 0.78
- Ki [4]: 9.25 ± 2.3 nM
SMILES: CCN1CCC[C@H]1CNC(=O)c1c(O)c(Cl)cc(Cl)c1OC [Raclopride]

- HC D2 [2]: 0.80
- Ki [2]: 1860 ± 261 nM
- affinity / selectivity for the D3 receptor [3]: lowest affinity for the D3 receptor
- HC D3 [3]: 1.00
- Ratio D2/D3 ([3]; Table 4 and its discussion): 4.8
- Ki ([3]; Table 4 and its discussion, [^125 I]-NCQ298 0.1 nM, 37° C., 20 min, read-out: Ki D3): 391 ± 47 nM
SMILES: Oc1ccc2c(c1)CC(NCc1ccccc1)CC2 (stereo not shown) [7-OH-BAT, 7Hydroxy-2-N-n-Benzylaminotetralin]

SMILES: CN1CCc2cc(Cl)c(O)cc2[C@@H](c2ccccc2)C1 [SCH23390]
- Hill Co. [4]: 0.80
- affinity for the D3 receptor [4]: moderate to low affinity

SMILES: CCCN(CCC)C1CCc2ccc(O)c([123I])c2C1 (stereo not shown) [[^123 I]-7-OH-DPAT, reference compound]
- Brain uptake ([5]; 2 min): 1.55 ± 0.21
- Brain uptake ([5]; 30 min): 0.54 ± 0.13
- tissue uptake at 2 min ([5]; 2 min, read-out: Regional uptake, Cerebellum): 0.81 ± 0.14 %ID/g
- tissue uptake at 2 min ([5]; 2 min, read-out: Regional uptake, Cortex): 1.1 ± 0.12 %ID/g
- tissue uptake at 2 min ([5]; 2 min, read-out: Regional uptake, Hippocampus): 0.78 ± 0.09 %ID/g
- tissue uptake at 2 min ([5]; 2 min, read-out: Regional uptake, Striatum): 0.85 ± 0.07 %ID/g
- tissue uptake at 0.5 h ([5]; 30 min, read-out: Regional uptake, Cerebellum): 0.25 ± 0.09 %ID/g
- tissue uptake at 0.5 h ([5]; 30 min, read-out: Regional uptake, Cortex): 0.29 ± 0.12 %ID/g
- tissue uptake at 0.5 h ([5]; 30 min, read-out: Regional uptake, Hippocampus): 0.31 ± 0.07 %ID/g
- tissue uptake at 0.5 h ([5]; 30 min, read-out: Regional uptake, Striatum): 0.31 ± 0.08 %ID/g
- brain washout ([5]; rats, brain): rapidly washed out of the brain
- regional uptake in the different area of the brain ([5]; rats, brain): no regional uptake was observed

SMILES: CCCN(CCC)C1CCc2cccc(O)c2C1 (racemic) [8-OH-DPAT, 8-hydroxy-2-(di-n-propylamino)tetralin]
- Hill Co. [4]: 0.78

SMILES: C#CCN(CCC)C1CCc2ccc(O)cc2C1 (stereo not shown) [7-OH-PPAT, 7Hydroxy-2-(-Propargyl-N-n-Propyl)-Aminotetralin]
- affinity for the D2 receptor [2]: three-fold less active than 7-OH-DPAT
- HC D2 [2]: 0.99
- Ki [2]: 378 ± 45 nM
- Ki [3]: 9.2 ± 0.6 nM
- affinity / selectivity for the D3 receptor [3]: three-fold less active than 7-OH-DPAT
- HC D3 [3]: 0.80
- Ratio D2/D3 ([3]; Table 4 and its discussion): 41.1

SMILES: NCCc1c[nH]c2ccc(O)cc12 [5-HT]
- Hill Co. [4]: 0.90
- Ki [4]: 2340 ± 420 nM
